24 compounds from patent US5554620A, “Substituted 6,11-ethano-6,11-dihydrobenzo[b] quinolizinium salts and compositions and methods of use thereof” (Sterling Winthrop Inc., priority 1994, dated 1996) can be followed below.

SMILES strings stand for the structures.

The target of one experiment is PCP receptor. Put plainly: [3H]TCP radioreceptor assay (binding to PCP recognition sites). The conditions noted are these: for Ki: [3H]TCP approx. 1 nM, rat brain membranes, mean of at least two determinations. Also on record: species or system rat (male Sprague-Dawley, whole brain). A digest of the protocol:
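Rat whole-brain membranes (Tris-HCl, pH 7.7), 0.5 mg protein/tube, incubated with ~1 nM [3H]TCP for 25 min at room temperature; non-specific binding defined with 100 μM PCP. Bound ligand collected by filtration and counted by scintillation; Ki from at least two determinations, or % inhibition at 10 μM.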

The test system of experiment [1] is cultured cortical neurons. As to the kind of experiment: Antagonism of NMDA-induced neurotoxicity in cultured cortical neurons (LDH release). It is filed as cell-based, mouse (Swiss-Webster). To be noted: 500 μM NMDA, 30 min exposure, LDH 24 h later. As to the method: Antagonism of NMDA-induced Neurotoxicity in Cultured Neurons
Preparation of Cultured Cortical Neurons
Pregnant, Swiss-Webster mice were obtained from Taconic Farms (Germantown, New York) and sacrificed 16 days post conception. Fetuses were removed and placed in a sterile dish containing Hank's balanced salt solution (HBSS), pH 7.4. Brain cortices were dissected, meninges were removed, the tissue was minced and placed into a solution of HBSS containing 0.25% (w/v) trypsin at 37° C. for 15 minutes. Tissue was then triturated with a sterile pasteur pipet, diluted with minimal essential media (Gibco 330-1430), pH 7.4, supplemented with 10% horse serum, 10% fetal calf serum, 2 mM 1-glutamine, 21 mM d-glucose, 2.2 g/L sodium bicarbonate, 1000 U/mL penicillin, and 1,000 μg/mL streptomycin. Cells were plated onto Falcon primaria 96 well plates at a final density of 50,000 cells/well and incubated at 37 °C in the presence of 5% (v/v) carbon dioxide. After 5 days, plating media was replaced with maintenance media containing minimal essential media (Gibco 330-1430), pH 7.4, supplemented with 10% horse serum, […], 21 mM d-glucose, 2.2 g/L sodium bicarbonate, 1,000 U/mL penicillin, 1,000 μg/mL streptomycin, and 10 μM cytosine arabinoside. On days 7 and 10, media was replaced with maintenance media as above lacking the cytosine arabinoside. Experiments were conducted on day 13.
Neuroprotection Assessment
Day 13 cultured cortical neurons were washed twice with minimal essential media, pH 7.4 and then exposed for 30 minutes to 500 μM N-methyl-D-aspartic acid (NMDA) with or without varying concentrations of test agents. […] MK-801 and test agents were prepared in minimal essential media supplemented with 21 mM d-glucose and 2.2 g/L sodium bicarbonate (MEM). After 30 minutes, media was replaced with MEM alone. Exposure of neurons to test agents was limited to the NMDA treatment period. Twenty-four hours after removal of NMDA, an aliquot of media from each well was removed for assessment of cell injury by determining lactate dehydrogenase (LDH) activity by the method of Wroblewski and LaDue Proc. Soc. Exp. Biol. Med. 1955, 90, 210-213. The results are expressed as an IC50 (in nM) value (concentration causing 50% inhibition) for the antagonism of NMDA--inducedneurotoxicity. Table 3 summarizes the results obtained from the testing of representative compounds of the invention in the [^3 H]TCP radioreceptor assay as well as in the antagonism of NMDA-induced neurotoxicity in cultured neurons.
For orientation: LDH leaks from cells whose membrane has failed.

The next experiment relates to rat ischemia model. As to the kind of experiment: Middle cerebral artery occlusion (MCAo) model with reperfusion. It is filed as in vivo, rat (male Long Evans hooded and male Sprague-Dawley). To be noted: 0.1 mg test compound/kg/min, i.v. infusion started 30 min before occlusion. As to the method:
Middle Cerebral Artery Occlusion (MCAo) Model with Reperfusion
A 3-vessel rat ischemia model similar to those that have been extensively described in the literature (e.g. Stroke 17, 738-743 (1986), Stroke 20, 513-518 (1989)) was utilized. Under isoflurane anesthesia the right middle cerebral artery (via an approach through the temporalis muscle) and both common carotid arteries were reversibly occluded for varying durations between 60 minutes and 120 minutes. Both male Long Evans hooded rats and male Sprague-Dawley rats weighing between 300 and 420 grams were used. The animals' temperature was maintained throughout the study with heat lamps. A femoral vein and the ipsilateral femoral artery were cannulated for intravenous infusion and arterial blood pressure measurements and blood samples. Infusions of the test compounds were initiated 30 minutes prior to occlusion at a rate of 40 microliters per minute. After reinitiation of blood flow the animals were allowed to regain consciousness. Six hours post-initiation of ischemia the animals were sacrificed and the extent of neuronal damage was quantified with TTC staining. The results are expressed as a percent inhibition (±SEM) of infarct and penumbra region.

Broadly, the Ki is the equilibrium dissociation constant of an inhibitor or competing ligand from its target. In general, IC50 refers to the concentration that inhibits the measured activity by half.

On PCP receptor, `CC1C2c3ccccc3C(c3cccc[n+]32)C1(c1ccoc1)c1ccoc1` (single isomer, unassigned) [181(c), 6,11-ethano-12,12-di(3-furyl)-13-methyl-6,11-dihydrobenzo[b]quinolizinium hexafluorophosphate] had a Ki of 6.36 nM. The compound also came in with an IC50 in experiment [1] of 11.4 nM.

As to `CC1C2c3ccccc3C(c3cccc[n+]32)C1(c1ccoc1)c1ccoc1` (single isomer, unassigned) [181(d), 6,11-ethano-12,12-di(3-furyl)-13-methyl-6,11-dihydrobenzo[b]quinolizinium hexafluorophosphate], at PCP receptor, the affinity, expressed as Ki, was 6.15 nM. The compound also gave an IC50 in experiment [1] of 55 nM.

The compound `[O-][Cl+3]([O-])([O-])[O-].c1ccc2c(c1)C1CC(c3ccoc3)(c3ccn[nH]3)C2c2cccc[n+]21` (single isomer, unassigned) [185(a), 6,11-ethano-12-(3-furyl)-12-(5-pyrazolyl]-6,11-dihydrobenzo[b]quinolizinium perchlorate] showed a Ki on PCP receptor of 4.55 nM. Half-maximal inhibition in experiment [1] (Mus musculus, Cortical neurone) (IC50) was put at 32.6 nM.

Compound `[O-][Cl+3]([O-])([O-])[O-].c1ccc2c(c1)C1CC(c3ccoc3)(c3ccn[nH]3)C2c2cccc[n+]21` (single isomer, unassigned) [185(b), 6,11-ethano-12-(3-furyl)-12-(5-pyrazolyl]-6,11-dihydrobenzo[b]quinolizinium perchlorate] showed a Ki on PCP receptor of 6.29 nM. The compound further registered an IC50 in experiment [1] of 53 nM.

Consider `c1ccc2c(c1)CC1C3c4ccccc4C(c4cccc[n+]43)C21c1ccoc1` (stereo not drawn) [6(d), 6.11[[2',3']-3'-(3-furyl)indanyl]6,11-dihydrobenzo[b]quinolizinium chloride], for which, on PCP receptor, the affinity corresponds to a Ki of 1.2 nM. In experiment [1] (Mus musculus, Cortical neurone), this compound gave an IC50 of 244 nM.

Turning to `c1ccc2c(c1)C1C3CCc4occc4C3(c3ccoc3)C2c2cccc[n+]21` (stereo not drawn) [7(b), 6,11[[5',4']-4'-(3-furyl)-4',5',6',7'-tetrahydrobenzofuryl]6,11-dihydrobenzo[b]quinolizinium hexafluorophosphate], on PCP receptor, affinity was put at a Ki of 1.38 nM. Also, half-maximal inhibition in experiment [1] (Mus musculus, Cortical neurone) (IC50) required 7.6 nM.

On to `CCOC1(c2ccoc2)CC2c3ccccc3C1c1cccc[n+]12` (stereo not drawn) [11(F), 6,11-ethano-12-(3-furyl)-12-ethoxy-6,11-dihydrobenzo[b]quinolizinium chloride], for which, on PCP receptor, affinity was put at a Ki of 73 nM. This compound also returned an IC50 in experiment [1] (Mus musculus, Cortical neurone) of 2550 nM.

For `CCOC1(c2ccoc2)CC2c3ccccc3C1c1cccc[n+]12` (stereo not drawn) [11(g), 6,11-ethano-12-(3-furyl)-12-ethoxy-6,11-dihydrobenzo[b]quinolizinium chloride], at PCP receptor, the affinity, expressed as Ki, was 18 nM. Besides, the midpoint of inhibition in experiment [1], the IC50, lay at 2000 nM.

In turn, `c1ccc(C2(c3ccccc3)CC3c4ccccc4C2c2cccc[n+]23)cc1` (stereo not drawn) [17(b), 6,11-ethano-12,12-diphenyl-6,11-dihydrobenzo[b]quinolizinium chloride] showed a Ki on PCP receptor of 8.18 nM. In addition, the IC50 in experiment [1] came out at 197 nM.

The compound `CC12CC(c3ccccc3)(c3ccccc3)C(c3ccccc31)c1cccc[n+]12` (stereo not drawn) [19(b), 6,11-ethano-12,12-diphenyl-6-methyl-6,11-dihydro-benzo[b]quinolizinium. Chloride] came in with an inhibitory constant (Ki) at PCP receptor of 6.8 nM. The same compound returned an IC50 in experiment [1] (Mus musculus, Cortical neurone) of 102 nM.

The compound `CC12CC(c3cccs3)(c3cccs3)C(c3ccccc31)c1cccc[n+]12` (stereo not drawn) [47(d), 6,11-ethano-12,12-di(2-thienyl)-6-methyl-6,11-dihydrobenzo[b]quinoliziniumchloride] yielded a Ki on PCP receptor of 2.11 nM. It took 40 nM to reach half-maximal inhibition in experiment [1] (Mus musculus, Cortical neurone) (IC50).

For the compound `c1csc(C2(c3cccs3)CC3c4ccccc4C2c2cccc[n+]23)c1` (stereo not drawn) [48(b), 6,11-ethano-12,12-di(2-thienyl)-6,11-dihydrobenzo[b]quinolizinium chloride], affinity at PCP receptor was put at a Ki of 2.08 nM. Further, in experiment [1], inhibition was half-maximal at 23 nM (IC50).

In turn, `CC12CC(c3ccoc3)(c3ccoc3)C(c3ccccc31)c1cccc[n+]12` (stereo not drawn) [50(b), 6,11ethano-12,12-di(3-furanyl)-6-methyl-6,11-dihydrobenzo[b]quinolizinilium chloride] came in with a Ki on PCP receptor of 1.24 nM. This compound returned an IC50 in experiment [1] (Mus musculus, Cortical neurone) of 22 nM.

As to `CC12c3ccccc3C(c3cccc[n+]31)C(c1ccccc1)(c1ccccc1)C21CC1` (stereo not drawn) [51(c), 6,11-ethano-12,12-diphenyl-6-methyl-13,13-(spirocyclopropane)-6,11-dihydrobenzo[b]quinolizinium chloride], affinity at PCP receptor was put at a Ki of 22.3 nM. Moreover, 83 nM corresponded to half-maximal inhibition in experiment [1] (Mus musculus, Cortical neurone) (IC50).

In the case of `c1ccc2c(c1)C1CC(c3ccsc3)(c3ccsc3)C2c2cccc[n+]21` (stereo not drawn) [52(F), 6,11-ethanol 12,12-di(3-thienyl)-6,11-dihydrobenzo[b]quinolizinium chloride], the inhibition constant Ki on PCP receptor was 1.82 nM. The IC50 in experiment [1] (Mus musculus, Cortical neurone) came out at 39 nM.

For the compound `c1coc(C2(c3ccco3)CC3c4ccccc4C2c2cccc[n+]23)c1` (stereo not drawn) [57(d), 6,11-ethano-12,12-di(2-furanyl)-6,11-dihydrobenzo[b]quinolizinium chloride], the Ki on PCP receptor was 1.9 nM. The compound further came in with an IC50 in experiment [1] of 36 nM.

Take `c1ccc2c(c1)-c1ccccc1C21CC2c3ccccc3C1c1cccc[n+]12` (stereo not drawn) [58(c), 6,11-ethano-12,12-spiro-9H-fluorenyl-6,11-dihydrobenzo[b]quinolizinium chloride]: the “[3H]TCP percent inhibition @ 10 μm” value in the experiment on PCP receptor (inhibition of [3H]TCP binding at 10 μM) is reported as 32%. In addition, the IC50 in experiment [1] (Mus musculus, Cortical neurone) is over 1000 nM.

Compound `c1ccc2c(c1)C1CC(c3ccn[nH]3)(c3ccn[nH]3)C2c2cccc[n+]21` (stereo not drawn) [63(d), 6,11-ethano-12,12-di(5-pyrazolyl)-6,11-dihydrobenzo[b]quinoliziniumperchlorate] came in with a Ki on PCP receptor of 10 nM. Moreover, the IC50 in experiment [1] was found to be 1630 nM.

The compound `c1ccc2c(c1)C1CC(c3ccn[nH]3)(c3ccn[nH]3)C2c2cccc[n+]21` (stereo not drawn) [64(f), 11-ethano-12,12-di-[(pyrazol-5-yl)-6,11-dihydrobenzo[b]quinolizinium chloride] registered an inhibition constant Ki on PCP receptor of 13 nM. Moreover, in experiment [1], the IC50 is 360 nM.

At PCP receptor, `N#CC12CC(c3ccoc3)(c3ccoc3)C(c3ccccc31)c1cccc[n+]12` (stereo not drawn) [171(b), 6,11-ethano-12,12-di(3-furyl)-6-cyano-6,11-dihydrobenzo[b]quinolizinium chloride] yielded a Ki of 10.2 nM. For the same compound, the midpoint of inhibition in experiment [1] (Mus musculus, Cortical neurone), the IC50, lay at 26.5 nM.

`Oc1ccc2c(c1)C1c3cccc[n+]3C2CC1(c1cc[nH]n1)c1cc[nH]n1` (stereo not drawn) [195(c), 12,12-di(pyrazol-3-yl)-9-hydroxy-6,11-ethano-6,11-dihydrobenzo[b]quinolizinium chloride] had a Ki at PCP receptor of 12.6 nM. The compound further registered an IC50 in experiment [1] (Mus musculus, Cortical neurone) of 30.8 nM.

`Fc1ccc2c(c1)C1c3cccc[n+]3C2CC1(c1ccoc1)c1ccoc1.[O-][Cl+3]([O-])([O-])[O-]` (stereo not drawn) [196(c), 12,12-di(3-furyl)-9-fluoro-6,11-ethano-6,11-dihydrobenzo[b]quinolizinium perchlorate] had a Ki at PCP receptor of 4.11 nM. The midpoint of inhibition in experiment [1] (Mus musculus, Cortical neurone), the IC50, lay at 80 nM.

`Oc1cccc2c1C1c3cccc[n+]3C2CC1(c1ccoc1)c1ccoc1.[Cl-]` (stereo not drawn) [Example 68(c), 6,11-ethano-12,12-di(3-furyl)-10-hydroxy-6,11-dihydrobenzo[b]quinoliziniumchloride] registered a Ki on PCP receptor of 1.5 nM. Also, the “% Inhibition (± SEM) of infarct and penumbra region” value in the experiment on rat ischemia model is listed as 34 ± 14%.

At PCP receptor, `Oc1ccc2c(c1)C1c3cccc[n+]3C2CC1(c1ccoc1)c1ccoc1` (stereo not drawn) [Example 193, 12,12-di(3-furyl)-9-hydroxy-6,11-ethano-6,11-dihydrobenzo[b]quinolizinium chloride] showed a Ki of 2.13 nM. Moreover, the IC50 in experiment [1] (Mus musculus, Cortical neurone) is 11.8 nM.
